Laboratory results: ChEMBL document CHEMBL3621049, “Imidazole derivatives show anticancer potential by inducing apoptosis and cellular senescence” (2014)
Calls of active or inactive are those of the source.

Key:
Type in all cases: functional, cell-based
COLO 205 = experiment: Growth inhibition of human COLO205 cells at 10 uM by sulforhodamine B assay
RXF 393 = experiment: Growth inhibition of human RXF393 cells at 10 uM by sulforhodamine B assay
A549 = experiment: Growth inhibition of human A549/ATCC cells at 10 uM by sulforhodamine B assay
NCI/ADR-RES = experiment: Growth inhibition of human NCI/ADR-RES cells at 10 uM by sulforhodamine B assay
RPMI-8226 = experiment: Growth inhibition of human RPMI8226 cells at 10 uM by sulforhodamine B assay
SK-MEL-28 = experiment: Growth inhibition of human SK-MEL-28 cells at 10 uM by sulforhodamine B assay
SK-OV-3 = experiment: Growth inhibition of human SKOV3 cells at 10 uM by sulforhodamine B assay
OVCAR-4 = experiment: Growth inhibition of human OVCAR4 cells at 10 uM by sulforhodamine B assay
SN12C = experiment: Growth inhibition of human SN12C cells at 10 uM by sulforhodamine B assay
HCT-15 = experiment: Growth inhibition of human HCT15 cells at 10 uM by sulforhodamine B assay
HOP-62 = experiment: Growth inhibition of human HOP62 cells at 10 uM by sulforhodamine B assay
NCI-H23 = experiment: Growth inhibition of human NCI-H23 cells at 10 uM by sulforhodamine B assay
UACC-62 = experiment: Growth inhibition of human UACC62 cells at 10 uM by sulforhodamine B assay
MOLT-4 = experiment: Growth inhibition of human MOLT4 cells at 10 uM by sulforhodamine B assay
HCC 2998 = experiment: Growth inhibition of human HCC2998 cells at 10 uM by sulforhodamine B assay
NCI-H522 = experiment: Growth inhibition of human NCI-H522 cells at 10 uM by sulforhodamine B assay
CCRF-CEM = experiment: Growth inhibition of human CCRF-CEM cells at 10 uM by sulforhodamine B assay
TK-10 = experiment: Growth inhibition of human TK10 cells at 10 uM by sulforhodamine B assay
IGROV-1 = experiment: Growth inhibition of human IGROV1 cells at 10 uM by sulforhodamine B assay
SF-539 = experiment: Growth inhibition of human SF539 cells at 10 uM by sulforhodamine B assay
SF-295 = experiment: Growth inhibition of human SF295 cells at 10 uM by sulforhodamine B assay
NCI-H226 = experiment: Growth inhibition of human NCI-H226 cells at 10 uM by sulforhodamine B assay
SK-MEL-2 = experiment: Growth inhibition of human SK-MEL-2 cells at 10 uM by sulforhodamine B assay
T47D = experiment: Growth inhibition of human T47D cells at 10 uM by sulforhodamine B assay
SK-MEL-5 = experiment: Growth inhibition of human SK-MEL-5 cells at 10 uM by sulforhodamine B assay
NCI-H460 = experiment: Growth inhibition of human NCI-H460 cells at 10 uM by sulforhodamine B assay
SNB-75 = experiment: Growth inhibition of human SNB75 cells at 10 uM by sulforhodamine B assay
Malme-3M = experiment: Growth inhibition of human MALME-3M cells at 10 uM by sulforhodamine B assay
Hs-578T = experiment: Growth inhibition of human Hs 578T cells at 10 uM by sulforhodamine B assay
MDA-MB-435 = experiment: Growth inhibition of human MDA-MB-435 cells at 10 uM by sulforhodamine B assay
OVCAR-5 = experiment: Growth inhibition of human OVCAR5 cells at 10 uM by sulforhodamine B assay
NCI-H322M = experiment: Growth inhibition of human NCI-H322M cells at 10 uM by sulforhodamine B assay
OVCAR-8 = experiment: Growth inhibition of human OVCAR8 cells at 10 uM by sulforhodamine B assay
U-251 = experiment: Growth inhibition of human U251 cells at 10 uM by sulforhodamine B assay
K562 = experiment: Growth inhibition of human K562 cells at 10 uM by sulforhodamine B assay
MDA-MB-468 = experiment: Growth inhibition of human MDA-MB-468 cells at 10 uM by sulforhodamine B assay
SF-268 = experiment: Growth inhibition of human SF268 cells at 10 uM by sulforhodamine B assay
MCF7 = experiment: Growth inhibition of human MCF7 cells at 10 uM by sulforhodamine B assay
MDA-MB-231 = experiment: Growth inhibition of human MDA-MB-231 cells at 10 uM by sulforhodamine B assay
LOX IMVI = experiment: Growth inhibition of human LOXIMVI cells at 10 uM by sulforhodamine B assay
BT-549 = experiment: Growth inhibition of human BT549 cells at 10 uM by sulforhodamine B assay
SW-620 = experiment: Growth inhibition of human SW620 cells at 10 uM by sulforhodamine B assay
HT-29 = experiment: Growth inhibition of human HT-29 cells at 10 uM by sulforhodamine B assay
UO-31 = experiment: Growth inhibition of human UO31 cells at 10 uM by sulforhodamine B assay
SR = experiment: Growth inhibition of human SR cells at 10 uM by sulforhodamine B assay
HL-60(TB) = experiment: Growth inhibition of human HL-60(TB) cells at 10 uM by sulforhodamine B assay
M14 = experiment: Growth inhibition of human M14 cells at 10 uM by sulforhodamine B assay
A498 = experiment: Growth inhibition of human A498 cells at 10 uM by sulforhodamine B assay
PC-3 = experiment: Growth inhibition of human PC3 cells at 10 uM by sulforhodamine B assay
SNB-19 = experiment: Growth inhibition of human SNB19 cells at 10 uM by sulforhodamine B assay
HOP-92 = experiment: Growth inhibition of human HOP92 cells at 10 uM by sulforhodamine B assay
CAKI-1 = experiment: Growth inhibition of human Caki1 cells at 10 uM by sulforhodamine B assay
HCT-116 = experiment: Growth inhibition of human HCT116 cells at 10 uM by sulforhodamine B assay
DU-145 = experiment: Growth inhibition of human DU145 cells at 10 uM by sulforhodamine B assay
KM12 = experiment: Growth inhibition of human KM12 cells at 10 uM by sulforhodamine B assay
786-0 = experiment: Growth inhibition of human 786-0 cells at 10 uM by sulforhodamine B assay
ACHN = experiment: Growth inhibition of human ACHN cells at 10 uM by sulforhodamine B assay
UACC-257 = experiment: Growth inhibition of human UACC257 cells at 10 uM by sulforhodamine B assay
OVCAR-3 = experiment: Growth inhibition of human OVCAR3 cells at 10 uM by sulforhodamine B assay

Measured: growth inhibition (GI)

COc1ccc(-c2nc(-c3ccccc3)c(-c3ccccc3)[nH]2)cc1OC1CCCC1
active: all assays above
